{"source": "patent US20170326125A1", "about": "“MULTISUBSTITUTED AROMATIC COMPOUNDS AS INHIBITORS OF THROMBIN” (VERSEON CORPORATION, priority 2016, published 2017)"}
{"target": "T1, Human thrombin (Homo sapiens, UniProt P00734)", "T1 construct": "purchased Haematologic Technologies Inc", "experiment": "Inhibition of the protease activity of thrombin (chromogenic substrate S-2238)", "assay_type": "biochemical", "conditions": "Table C; 3 nM thrombin, 125 μM S-2238, 10 min pre-incubation, RT", "units": {"IC50": "µM"}}
{"smiles": "COc1ccccc1CNc1nc(-c2cccnc2)nn1C(=O)C(C)C", "note": "[Cmpd 305, 1-(5-[(2-methoxyphenyl)methyl]amino-3-(pyridin-3-yl)-1H-1,2,4-triazol-1-yl)-2-methylpropan-1-one]", "IC50": "> 1"}
{"smiles": "CC(C)C(=O)n1nc(-c2cccnc2)nc1NCc1ccc(Cl)cc1", "note": "[Cmpd 306, 1-(5-[(4-chlorophenyl)methyl]amino-3-(pyridin-3-yl)-1H-1,2,4-triazol-1-yl)-2-methylpropan-1-one]", "IC50": "< 0.1"}
{"smiles": "CC(=O)n1nc(-c2cccnc2)nc1NCc1ccc(Cl)cc1", "note": "[Cmpd 307, 1-(5-[(4-chlorophenyl)methyl]amino-3-(pyridin-3-yl)-1H-1,2,4-triazol-1-yl)ethan-1-one]", "IC50": "< 0.1"}
{"smiles": "CCC(=O)n1nc(-c2cccnc2)nc1NCc1ccc(Cl)cc1", "note": "[Cmpd 308, 1-(5-[(4-chlorophenyl)methyl]amino-3-(pyridin-3-yl)-1H-1,2,4-triazol-1-yl)propan-1-one]", "IC50": "< 0.1"}
{"smiles": "CC(C)(C)C(=O)n1nc(-c2ccco2)nc1NCc1ccc(F)cc1", "note": "[Cmpd 309, 1-(5-[(4-fluorophenyl)methyl]amino-3-(furan-2-yl)-1H-1,2,4-triazol-1-yl)-2,2-dimethylpropan-1-one]", "IC50": "< 0.1"}
{"smiles": "CC(C)C(=O)n1nc(-c2ccco2)nc1NCc1ccc(F)cc1", "note": "[Cmpd 310, 1-(5-[(4-fluorophenyl)methyl]amino-3-(furan-2-yl)-1H-1,2,4-triazol-1-yl)-2-methylpropan-1-one]", "IC50": "< 0.1"}
{"smiles": "COCC(=O)n1nc(-c2cccnc2)nc1NCc1ccc(F)cc1", "note": "[Cmpd 311, 1-(5-[(4-fluorophenyl)methyl]amino-3-(pyridin-3-yl)-1H-1,2,4-triazol-1-yl)-2-methoxyethan-1-one]", "IC50": "> 1"}
{"smiles": "CC(C)C(=O)n1nc(-c2cccnc2)nc1NCc1ccc(F)cc1", "note": "[Cmpd 312, 1-(5-[(4-fluorophenyl)methyl]amino-3-(pyridin-3-yl)-1H-1,2,4-triazol-1-yl)-2-methylpropan-1-one]", "IC50": "< 0.1"}
{"smiles": "O=C(Cc1ccccc1)n1nc(-c2cccnc2)nc1NCc1ccc(F)cc1", "note": "[Cmpd 313, 1-(5-[(4-fluorophenyl)methyl]amino-3-(pyridin-3-yl)-1H-1,2,4-triazol-1-yl)-2-phenylethan-1-one]", "IC50": "< 0.1"}
{"smiles": "CC(C)CC(=O)n1nc(-c2cccnc2)nc1NCc1ccc(F)cc1", "note": "[Cmpd 314, 1-(5-[(4-fluorophenyl)methyl]amino-3-(pyridin-3-yl)-1H-1,2,4-triazol-1-yl)-3-methylbutan-1-one]", "IC50": "< 0.1"}
{"target": "T1, Human thrombin", "experiment": "Inhibition of the protease activity of thrombin (chromogenic substrate S-2238)", "assay_type": "biochemical", "conditions": "inhibition of the protease activity of thrombin", "units": {"IC50": "µM"}}
{"smiles": "O=C(c1ccc2ccccc2c1)n1nc(-c2ccccn2)nc1NCc1ccccc1", "note": "[Cmpd 271, N-benzyl-1-[(naphthalen-2-yl)carbonyl]-3-(pyridin-2-yl)-1H-1,2,4-triazol-5-amine]", "IC50": "0.1 to 1"}
{"smiles": "O=C(c1ccc2ccccc2c1)n1nc(-c2ccccn2)cc1NCc1ccccc1", "note": "[Cmpd 272, N-benzyl-1-[(naphthalen-2-yl)carbonyl]-3-(pyridin-2-yl)-1H-pyrazol-5-amine]", "IC50": "> 1"}
{"smiles": "CN(C)c1ccccc1C(=O)n1nc(-c2ccccn2)nc1NCc1ccccc1", "note": "[Cmpd 273, N-benzyl-1-[2-(dimethylamino)phenyl]carbonyl-3-(pyridin-2-yl)-1H-1,2,4-triazol-5-amine]", "IC50": "> 1"}
{"smiles": "CC(C)c1ccccc1C(=O)n1nc(-c2ccccn2)nc1NCc1ccccc1", "note": "[Cmpd 275, N-benzyl-1-[2-(propan-2-yl)phenyl]carbonyl-3-(pyridin-2-yl)-1H-1,2,4-triazol-5-amine]", "IC50": "> 1"}
{"smiles": "CC(C)c1ccccc1C(=O)n1nc(-c2ccccn2)cc1NCc1ccccc1", "note": "[Cmpd 276, N-benzyl-1-[2-(propan-2-yl)phenyl]carbonyl-3-(pyridin-2-yl)-1H-pyrazol-5-amine]", "IC50": "> 1"}
{"smiles": "O=C(c1ccccc1F)n1nc(-c2ccccc2F)cc1NCc1ccccc1", "note": "[Cmpd 277, N-benzyl-3-(2-fluorophenyl)-1-[(2-fluorophenyl)carbonyl]-1H-pyrazol-5-amine]", "IC50": "0.1 to 1"}
{"smiles": "COc1ccccc1C(=O)n1nc(-c2ccccc2F)cc1NCc1ccccc1", "note": "[Cmpd 278, N-benzyl-3-(2-fluorophenyl)-1-[(2-methoxyphenyl)carbonyl]-1H-pyrazol-5-amine]", "IC50": "> 1"}
{"smiles": "O=C(c1ccsc1)n1nc(-c2ccccc2F)cc1NCc1ccccc1", "note": "[Cmpd 279, N-benzyl-3-(2-fluorophenyl)-1-[(thiophen-3-yl)carbonyl]-1H-pyrazol-5-amine]", "IC50": "> 1"}
{"smiles": "COc1ccccc1C(=O)n1nc(-c2ccco2)nc1NCc1ccccc1", "note": "[Cmpd 280, N-benzyl-3-(furan-2-yl)-1-[(2-methoxyphenyl)carbonyl]-1H-1,2,4-triazol-5-amine]", "IC50": "< 0.1"}
{"smiles": "c1ccc(CNc2nc(-c3ccco3)n[nH]2)cc1", "note": "[Cmpd 281, N-benzyl-3-(furan-2-yl)-1H-1,2,4-triazol-5-amine]", "IC50": "> 1"}
{"smiles": "O=C(c1cccs1)n1nc(-c2ccccn2)nc1NCc1ccccc1", "note": "[Cmpd 282, N-benzyl-3-(pyridin-2-yl)-1-[(thiophen-2-yl)carbonyl]-1H-1,2,4-triazol-5-amine]", "IC50": "< 0.1"}
{"smiles": "O=C(c1ccsc1)n1nc(-c2ccccn2)nc1NCc1ccccc1", "note": "[Cmpd 283, N-benzyl-3-(pyridin-2-yl)-1-[(thiophen-3-yl)carbonyl]-1H-1,2,4-triazol-5-amine]", "IC50": "< 0.1"}
{"smiles": "O=C(c1ccsc1)n1nc(-c2ccccn2)cc1NCc1ccccc1", "note": "[Cmpd 284, N-benzyl-3-(pyridin-2-yl)-1-[(thiophen-3-yl)carbonyl]-1H-pyrazol-5-amine]", "IC50": "< 0.1"}
{"smiles": "O=C(c1ccccc1OC(F)(F)F)n1nc(-c2ccccn2)nc1NCc1ccccc1", "note": "[Cmpd 285, N-benzyl-3-(pyridin-2-yl)-1-[2-(trifluoromethoxy)phenyl]carbonyl-1H-1,2,4-triazol-5-amine]", "IC50": "< 0.1"}
{"smiles": "O=C(c1ccccc1C(F)(F)F)n1nc(-c2ccccn2)nc1NCc1ccccc1", "note": "[Cmpd 286, N-benzyl-3-(pyridin-2-yl)-1-[2-(trifluoromethyl)phenyl]carbonyl-1H-1,2,4-triazol-5-amine]", "IC50": "> 1"}
{"smiles": "c1ccc(CNc2nc(-c3cccnc3)n[nH]2)cc1", "note": "[Cmpd 287, N-benzyl-3-(pyridin-3-yl)-1H-1,2,4-triazol-5-amine]", "IC50": "> 1"}
{"smiles": "O=C(c1cccs1)n1nc(-c2ccncc2)nc1NCc1ccccc1", "note": "[Cmpd 288, N-benzyl-3-(pyridin-4-yl)-1-[(thiophen-2-yl)carbonyl]-1H-1,2,4-triazol-5-amine]", "IC50": "< 0.1"}
{"smiles": "O=C(c1ccsc1)n1nc(-c2ccncc2)nc1NCc1ccccc1", "note": "[Cmpd 289, N-benzyl-3-(pyridin-4-yl)-1-[(thiophen-3-yl)carbonyl]-1H-1,2,4-triazol-5-amine]", "IC50": "< 0.1"}
{"smiles": "c1ccc(CNc2nc(-c3ccncc3)n[nH]2)cc1", "note": "[Cmpd 290, N-benzyl-3-(pyridin-4-yl)-1H-1,2,4-triazol-5-amine]", "IC50": "> 1"}
{"smiles": "O=C(c1ccsc1)n1nc(-c2cccs2)nc1NCc1ccccc1", "note": "[Cmpd 291, N-benzyl-3-(thiophen-2-yl)-1-[(thiophen-3-yl)carbonyl]-1H-1,2,4-triazol-5-amine]", "IC50": "0.1 to 1"}
{"smiles": "COc1ccccc1C(=O)N(Cc1ccccc1)c1cc(-c2ccccc2F)n[nH]1", "note": "[Cmpd 292, N-benzyl-N-[3-(2-fluorophenyl)-1H-pyrazol-5-yl]-2-methoxybenzamide]", "IC50": "> 1"}
{"smiles": "CCN(C)C(=O)c1cc(-c2ccccn2)nn1CCc1ccc(F)cc1", "note": "[Cmpd 293, N-ethyl-1-[2-(4-fluorophenyl)ethyl]-N-methyl-3-(pyridin-2-yl)-1H-pyrazole-5-carboxamide]", "IC50": "> 1"}
{"smiles": "CCN(C)C(=O)c1cc(-c2ccccn2)n(CCc2ccc(F)cc2)n1", "note": "[Cmpd 294, N-ethyl-1-[2-(4-fluorophenyl)ethyl]-N-methyl-5-(pyridin-2-yl)-1H-pyrazole-3-carboxamide]", "IC50": "> 1"}
{"smiles": "CCNC(=O)c1cn(-c2ccccn2)nc1NCc1ccc(F)cc1", "note": "[Cmpd 295, N-ethyl-3-[(4-fluorophenyl)methyl]amino-1-(pyridin-2-yl)-1H-pyrazole-4-carboxamide]", "IC50": "> 1"}
{"smiles": "CCNC(=O)n1nc(-c2cccnc2)nc1NCc1ccc(F)cc1", "note": "[Cmpd 296, N-ethyl-5-[(4-fluorophenyl)methyl]amino-3-(pyridin-3-yl)-1H-1,2,4-triazole-1-carboxamide]", "IC50": "> 1"}
{"smiles": "CCN(C)C(=O)n1nc(-c2cccnc2)nc1NCc1ccc(F)cc1", "note": "[Cmpd 297, N-ethyl-5-[(4-fluorophenyl)methyl]amino-N-methyl-3-(pyridin-3-yl)-1H-1,2,4-triazole-1-carboxamide]", "IC50": "> 1"}
{"smiles": "O=C(Oc1ccccc1)n1nc(-c2cccnc2)nc1NCc1ccc(F)cc1", "note": "[Cmpd 298, phenyl 5-[(4-fluorophenyl)methyl]amino-3-(pyridin-3-yl)-1H-1,2,4-triazole-1-carboxylate]", "IC50": "< 0.1"}
{"smiles": "CC(C)OC(=O)n1nc(-c2cccnc2)nc1NCc1ccc(F)cc1", "note": "[Cmpd 299, propan-2-yl 5-[(4-fluorophenyl)methyl]amino-3-(pyridin-3-yl)-1H-1,2,4-triazole-1-carboxylate]", "IC50": "> 1"}
{"smiles": "CC(C)(C)OC(=O)n1nc(-c2cccnc2)nc1NCc1ccc(F)cc1", "note": "[Cmpd 300, tert-butyl 5-[(4-fluorophenyl)methyl]amino-3-(pyridin-3-yl)-1H-1,2,4-triazole-1-carboxylate]", "IC50": "> 1"}
{"smiles": "CC(C)(C)OC(=O)Nc1ccccc1C(=O)n1nc(-c2ccccn2)nc1NCc1ccccc1", "note": "[Cmpd 301, tert-butyl N-(2-[5-(benzylamino)-3-(pyridin-2-yl)-1H-1,2,4-triazol-1-yl]carbonylphenyl)carbamate]", "IC50": "> 1"}
{"smiles": "CC(=O)c1cn(-c2ccccc2)nc1N(Cc1ccc(F)cc1)C(=O)OC(C)(C)C", "note": "[Cmpd 302, tert-butyl N-(4-acetyl-1-phenyl-1H-pyrazol-3-yl)-N-[(4-fluorophenyl)methyl]carbamate]", "IC50": "> 1"}
{"smiles": "COc1ccccc1C(=O)c1cn(-c2ccccc2)nc1N(Cc1ccc(F)cc1)C(=O)OC(C)(C)C", "note": "[Cmpd 303, tert-butyl N-[(4-fluorophenyl)methyl]-N-4-[(2-methoxyphenyl)carbonyl]-1-phenyl-1H-pyrazol-3-ylcarbamate]", "IC50": "> 1"}
{"smiles": "COc1ccccc1C(O)c1cc(-c2ccccn2)nn1CCc1ccc(F)cc1", "note": "(stereo not shown) [Cmpd 304, 1-[2-(4-fluorophenyl)ethyl]-3-(pyridin-2-yl)-1H-pyrazol-5-yl(2-methoxyphenyl)methanol]", "IC50": "> 1"}
